Literature values, collected in US20180146647A1, “MEDETOMIDINE FOR USE IN CONTROLLING PARASITIC CRUSTACEANS ON FISH” (I-Tech AB, priority 2015, published 2018).

What was measured:
[1] = system: cyprid larvae; conditions: medetomidine 10 nM; Mol Pharmacol 78:237-248, 2010
[2] = system: algae; conditions: target protein lacking within algae
[3] = system: α2-adrenoceptor; conditions: given to mammals and fish; Sinclair, 2003; Ruuskanen et al., 2005

In the case of `Cc1cccc(C(C)c2c[nH]cn2)c1C` (racemic) [Medetomidine, (±) 4-[1-(2,3-Dimethylphenyl)ethyl]-1H-imidazole], the “kicking of the cyprid larvae” value [1] is listed as “more than 100 kicks per minute”, the “effect on algal growth” value [2] is listed as “no effect on algal growth” and the “physiological effect in vertebrates” value [3] is listed as “sedation and locomotor inhibition”.
